For one data set, the system named is PCSK1 transcript. Nature of the data set: PCSK1 transcript levels in iPSC-derived neurons. It counts as cell-based, human. The procedure: FIGS. 6A-F are graphs showing that application of phosphodiesterase inhibitors to iPSC-derived neurons increases PCSK1 transcript levels and prohormone processing. […] FIGS. 6B-C: Roflumilast increases PCSK1 transcript levels in iPSC-derived neurons at Day 40 of differentiation (1043D3 line) at […] concentration. […] FIG. 6F: MK0952 applied at 10 μM in combination with 1 μM Forskolin increases PCSK1 transcript levels ˜2-fold in iPSC-derived neurons (1043D3 line).
Forskolin was applied to various cellular models and the results illustrate that it robustly and reliably increases PCSK1 transcript levels, PC1 protein levels, and functionally increases prohormone processing. PCSK1/Pcsk1 transcript levels increased between 2-3 fold in iPSC-derived neurons and primary mouse neurons exposed to 10 μM Forskolin (FIGS. 5A, C, D).
(§1) Cyclic AMP concentrations increased about 8.5-fold in iPSC-derived hypothalamic ARC neurons exposed to 10 μM Forskolin, supporting the inference that application of Forskolin increases PCSK1 transcript levels by raising cellular cAMP levels which in turn activate PCSK1's cAMP-response element promoter. FIG. 5A is a graph showing primary forebrain neurons were isolated from gestational day 19.5 (E19.5) embryos of wild type mice and cultured for 72 hours. Subsequently, cells were exposed to either 10 μM Forskolin or its vehicle, dimethyl sulfoxide (DMSO) for 20 hours. Pcsk1 transcript increased ˜2.5-fold in primary neurons exposed to Forskolin. FIG. 5B is a graph showing unaffected control hypothalamic arcuate-like (ARC) neurons (Hes Nkx2-1 hESC line) at day 37 (D37) of differentiation were treated with 10 μM Forskolin or vehicle for thirty minutes. Cyclic adenosine monophosphate (cAMP) levels were increased about 8.5-fold in cells exposed to Forskolin. […] Four hours of exposure yielded the maximal increase in upregulation, about 2.5-fold, of the time points tested.
However, the effect size of PDE inhibition on PCSK1 transcript levels is less than that induced by AC agonism with forskolin. […] Again, increased PCSK1 transcription due to combination treatment with Forskolin and Roflumilast also increases prohormone processing of POMC to ACTH (FIG. 6E).

Data set [1] is described as follows: Ratio of circulating proinsulin:insulin in wild type mice. Conditions: single administration, ~4 hour fasted wild type mice. It counts as in vivo, mouse. The procedure: The first in vivo study with MK0952 administered by oral gavage while forskolin was administered intraperitoneally one time to ˜4 hour fasted wild type mice was completed. […] This difference likely reflects greater CNS penetrance of the MK0952, not the general relevance of a cyclase activator to therapy of PWS. No change in the ratio of circulating proinsulin:insulin was detected following administration MK0952 or Forskolin. Because the processing of proinsulin to insulin is already quite efficient in WT animals, it is in hindsight unlikely that it would further increase at fasting. However, these ‘baseline’ data are still valuable for assessing proinsulin to insulin processing under the setting of an intraperitoneal glucose tolerance test at […] glucose in both WT and Snord116^p−/m+ mice. Additionally, samples were collected for measurement of circulating cAMP levels, cortical proBDNF/BDNF, cerebellar Pcsk1, gastric Pcsk1, and gastric proghrelin/ghrelin, and finally pulmonary Pcsk1 transcript and cAMP levels.

Data set [2] relates to PDE4. Conditions: read-out: IC50 (intrinsic potency, PDE4 inhibitor); cited from earlier work.
A further data set deals with whole blood. The conditions noted are these: cited from earlier work.
The subject of data set [3] is PDE4. Conditions: cited from earlier work.
For data set [4] the following is noted: cited from earlier work.
The conditions of data set [5]: cited from earlier work. This is another data set of the same source.
In data set [6] the test system is adenylate cyclase (AC) isoforms. Conditions: cited from earlier work.
The test system of a further data set is cAMP. Nature of the data set: cAMP levels in hypothalamic arcuate-like (ARC) neurons (Hes Nkx2-1 hESC line). The class given is cell-based, human. The conditions noted are these: 10 μM Forskolin, thirty minutes, day 37 of differentiation. The procedure:
as §1, with “2.5-fold” for “˜2.5-fold”, “([…])” for “(D37)”
(Changes in cAMP serve as a functional read-out for many G protein-coupled receptors.)

In the next data set the test system is PC1. Nature of the data set: PC1 protein levels in isolated islets from WT mice. The class given is cell-based, mouse. Conditions: isolated islets from wild type mice, 25 μM and 50 μM Forskolin.

The structures appear in SMILES notation. Like-named read-outs stand apart in the source and are kept apart here.

As for `Cn1c(=O)c2[nH]cnc2n(C)c1=O` [Theophylline], the “PCSK1 transcript levels, single agent” value in the data set with PCSK1 transcript (D34 iPSC-derived hypothalamic ARC neurons (1023A line), 10 mM) was “increases”.

As a reminder, the IC50 is the point on the concentration scale where inhibition reaches its midpoint. On to `O=C(NC1CC1)c1cn(-c2cccc(-c3ccc([C@@H]4C[C@H]4C(=O)O)c(F)c3)c2)c2ncccc2c1=O` [MK0952], for which the “PCSK1 transcription, MK0952 as single agent in vitro” value in the data set on PCSK1 transcript (iPSC-derived neurons) is recorded as “only been found to increase PCSK1 transcription in combination with Forskolin”. Further, the “ratio of circulating proinsulin:insulin” value in data set [1] is given as “No change”. Further, the IC50 is 0.6 nM in the data set with PDE4 [2] and 555 nM with whole blood. Moreover, the PDE4 selectivity entry with PDE4 [3] is listed as “selective”. The Brain penetration result in data set [4] (PDE4 inhibitors, Table 1A) was “brain-penetrant and yes”.

Consider `CC(=O)N[C@@H](C)c1cc(Cl)ccc1C1CCN(C(=O)[C@@H]2CN(C(C)(C)C)C[C@H]2c2ccc(F)cc2F)CC1` [MK-0493], for which the “efficacy for weight loss in non-genetic obese” value in data set [5] is on record as “animal models but limited”.

Regarding `CC(C)Cn1c(=O)n(C)c(=O)c2[nH]cnc21` [IBMX, 3-isobutyl-1-methylxanthine], the PDE4 selectivity entry in the data set with PDE4 [3] is “nonselective”.

In the case of `C=C[C@@]1(C)CC(=O)[C@]2(O)[C@@]3(C)[C@@H](O)CCC(C)(C)[C@@H]3[C@H](OC(=O)CCN(C)C)[C@H](OC(C)=O)[C@@]2(C)O1.Cl` [FD5], the AC isoforms activated result in data set [6] is “AC5 (AC5 expressed in heart,”.

Regarding `C=C[C@@]1(C)CC(=O)[C@]2(O)[C@@]3(C)[C@@H](O)CCC(C)(C)[C@@H]3[C@H](O)[C@H](OC(C)=O)[C@@]2(C)O1` [Forskolin], the “maximal increase in PCSK1 upregulation” value with PCSK1 transcript (iPSC-derived neurons (line 1043D3), 10 μM Forskolin, four hours) is “about 2.5 fold”. Besides, in the data set with PCSK1 transcript (iPSC-derived neurons exposed to 10 μM Forskolin), the “PCSK1 transcript levels increase” value is listed as 2-3 fold. Besides, the cAMP levels increase entry with cAMP was “about 8.5 fold”. Besides, the “PC1 protein levels increase” value in the data set on PC1 was roughly 3 fold. For the same compound, the Brain penetration entry in data set [4] (adenylate cyclase activators, Table 2) is listed as “Yes”.

With `CC(C)C(=O)c1c(C(C)C)nn2ccccc12` [Ibudilast], the Brain penetration entry in [4] (PDE4 inhibitors, Table 1A) is reported as “Yes”.

Regarding `CCOc1cc([C@@H](CS(C)(=O)=O)N2C(=O)c3cccc(NC(C)=O)c3C2=O)ccc1OC` [Apremilast], the PDE4 selectivity result in the data set on PDE4 [3] is given as “Selective”. The Brain penetration entry in [4] (PDE4 inhibitors, Table 1A) is “None”.

For `O=C(Nc1c(Cl)cncc1Cl)c1ccc(OC(F)F)c(OCC2CC2)c1` [Roflumilast], the “PCSK1 transcript levels, single agent” value in the data set on PCSK1 transcript (iPSC-derived neurons Day 40 (1043D3 line), 1 mM) is given as “increases”. For the same compound, the PDE4 selectivity entry with PDE4 [3] is “Selective”. The Brain penetration result in [4] (PDE4 inhibitors, Table 1A) is “limited”.

Consider `CCn1ncc2c(NC3CCOCC3)c(-c3nnc(Cc4sc(C)nc4C)o3)cnc21` [GSK356278], for which, in the data set with PDE4 [3], the PDE4 selectivity entry is “Selective”. Moreover, the Brain penetration result in data set [4] (PDE4 inhibitors, Table 1A) was “Good”.

The record behind these values is patent US11957656B2, “Methods of treating Prader-Willi syndrome” (The Trustees of Columbia University in the City of New York, priority 2016, dated 2024).
